# Values quoted from earlier work, collected in patent US20230357798A1, “GENE CORRECTION FOR X-CGD IN HEMATOPOIETIC STEM AND PROGENITOR CELLS” (THE BOARD OF TRUSTEES OF THE LELAND STANFORD JUNIOR …, priority 2020, published 2023).
# Like-named read-outs stand apart in the source and are kept apart here.
# Key:
# [1] = test system: CD34^+ HSPCs
# [2] = test system: CD34^+ HSPCs; details: for cell viability relative to edited controls: single agent, CD34+ HSPCs
compound,measurement,setting,value
O=c1cc(N2CCOCC2)oc2c1ccc1ccccc12 [NU7026],enhancement of HDR,"[1]; combined with Trichostatin A and NSC 15520, CRISPR/Cpf1, ssODN donor",2.6 fold
same,enhancement of HDR,"[1]; single agent, CD34+ HSPCs",1.7 fold
same,HSPC viability,[2]; combined with Trichostatin A and NSC 15520,65%
same,cell viability relative to edited controls,[2],~80%
O=c1cc(N2CCOCC2)oc2c(-c3cccc4c3sc3ccccc34)cccc12 [NU7441],enhancement of HDR,"[1]; single agent, CD34+ HSPCs",2 fold
same,cell viability relative to edited controls,[2],~65%
